Values after ≈ are worked out from the molar mass of the structure shown. Active and inactive are the calls of the source. No cut-off for these calls is given here.
Columns and labels:
Candida albicans = experiment: Antimicrobial activity against Candida albicans at 60 ug/disk; assay type: functional, organism-based
[1] = Cytotoxicity against […] BSC cells at 60 ug/disk; assay type: cell-based
P388 = experiment: Cytotoxicity against mouse P388 cells; assay type: functional, cell-based

| SMILES | Activity (Candida albicans) | Activity [1] | IC50 (P388) [µg/mL] |
| --- | --- | --- | --- |
| C=C[C@@]1(C)C=C2CC[C@@H]3C(C)(C)CC[C@H](O)[C@@]3(C)[C@@H]2CC1 | inactive | Not Active | > 25 |
| C[C@@H]1C[C@@]23CC[C@@H]4C(C)(C)CC[C@H](O)[C@@]4(C)[C@@H]2CC(=O)[C@@H]1C3 | – | – | 15 (≈ 49.3 µM) |

From ChEMBL document CHEMBL1146411, “1-Hydroxyditerpenes from Two New Zealand Liverworts, Paraschistochila pinnatifolia and Trichocolea mollissima” (J Nat Prod, 1997)
